Like-named read-outs stand apart in the source and are kept apart here.
Columns and labels:
[1] = target: T1, HCV NS5B (Hepatitis C virus genotype 1b, UniProt Q9WMX2); assay: HCV NS5B RdRp enzyme assay (standard / modified); format: biochemical
T1 construct: The protein was expressed with an 18 amino acid C-terminal truncation to enhance the solubility; made in house; host or cells: E. coli BL21 (DE3)
Method: HCV NS5B RdRp cloning, expression, and purification. The cDNA encoding the NS5B protein of HCV, genotype 1b, was cloned into the pET21a expression vector. The protein was expressed with an 18 amino acid C-terminal truncation to enhance the solubility. The E. coli competent cell line BL21 (DE3) was used for expression of the protein. Cultures were grown at 37° C. for ˜4 hours until the cultures reached an optical density of 2.0 at 600 nm. The cultures were cooled to 20° C. and induced with 1 mM IPTG. Fresh ampicillin was added to a final concentration of 50 μg/ml and the cells were grown overnight at 20° C.
Cell pellets (3 L) were lysed for purification to yield 15-24 mgs of purified NS5B. The lysis buffer consisted of 20 mM Tris-HCl, pH 7.4, 500 mM NaCl, 0.5% triton X-100, 1 mM DTT, 1 mM EDTA, 20% glycerol, 0.5 mg/ml lysozyme, 10 mM MgCl2, 15 ug/ml deoxyribonuclease I, and Complete TM protease inhibitor tablets (Roche). After addition of the lysis buffer, frozen cell pellets were resuspended using a tissue homogenizer. To reduce the viscosity of the sample, aliquots of the lysate were sonicated on ice using a microtip attached to a Branson sonicator. The sonicated lysate was centrifuged at 100,000×g for 1 hr at 4° C. and filtered through a 0.2 μm filter unit (Corning).
The protein was purified using three sequential chromatography steps: Heparin sepharose CL-6B, polyU sepharose 4B, and Hitrap SP sepharose (Pharmacia). The chromatography buffers were identical to the lysis buffer but contained no lysozyme, deoxyribonuclease I, MgCl2 or protease inhibitor and the NaCl concentration of the buffer was adjusted according to the requirements for charging the protein onto the column. Each column was eluted with a NaCl gradient which varied in length from 5-50 column volumes depending on the column type. After the final chromatography step, the resulting purity of the enzyme is >90% based on SDS-PAGE analysis. The enzyme was aliquoted and stored at −80° C.
Standard HCV NS5B RdRp enzyme assay. HCV RdRp genotype 1b assays were run in a final volume of 60 μl in 96 well plates (Costar 3912). The assay buffer is composed of 20 mM Hepes, pH 7.5, 2.5 mM KCl, 2.5 mM MgCl2, 1 mM DTT, 1.6 U RNAse inhibitor (Promega N2515), 0.1 mg/ml BSA (Promega R3961), and 2% glycerol. All compounds were serially diluted (3-fold) in DMSO and diluted further in water such that the final concentration of DMSO in the assay was 2%. HCV RdRp genotype 1b enzyme was used at a final concentration of 28 nM. A polyA template was used at 6 nM, and a biotinylated oligo-dT12 primer was used at 180 nM final concentration. Template was obtained commercially (Amersham 27-4110). Biotinylated primer was prepared by Sigma Genosys. 3H-UTP was used at 0.6 μCi (0.29 μM total UTP). Reactions were initiated by the addition of enzyme, incubated at 30° C. for 60 min, and stopped by adding 25 μl of 50 mM EDTA containing SPA beads (4 μg/μl, Amersham RPNQ 0007). Plates were read on a Packard Top Count NXT after >1 hr incubation at room temperature.
Modified HCV NS5B RdRp enzyme assay. A modified enzyme assay was performed essentially as described for the standard enzyme assay except for the following: The biotinylated oligo dT12 primer was precaptured on streptavidin-coated SPA beads by mixing primer and beads in assay buffer and incubating at room temperature for one hour. Unbound primer was removed after centrifugation. The primer-bound beads were resuspended in 20 mM Hepes buffer, pH 7.5 and used in the assay at final concentrations of 20 nM primer and 0.67 μg/μl beads. Order of addition in the assay: enzyme (14 nM) was added to diluted compound followed by the addition of a mixture of template (0.2 nM), 3H-UTP (0.6 μCi, 0.29 μM), and primer-bound beads, to initiate the reaction; concentrations given are final. Reactions were allowed to proceed for 4 hours at 30° C.
IC50 values for compounds were determined using seven different [I]. […]

[2] = system: HCV replicon cells; assay: HCV replicon FRET / luciferase assay; format: cell-based; conditions: Hepatitis C virus
Text: FRET Assay Preparation. To perform the HCV FRET screening assay, 96-well cell culture plates were used. The FRET peptide (Anaspec, Inc.) (Taliani et al., Anal. Biochem. 1996, 240, 60-67) contains a fluorescence donor, EDANS, near one end of the peptide and an acceptor, DABCYL, near the other end. The fluorescence of the peptide is quenched by […] resonance energy transfer (RET) between the donor and the acceptor, but as the NS3 protease cleaves the peptide the products are released from RET quenching and the fluorescence of the donor becomes apparent. The assay reagent was made as follows: 5× cell Luciferase cell culture lysis reagent from Promega (#E153A) diluted to 1× with dH2O, NaCl added to 150 mM final, the FRET peptide diluted to 20 μM final from a 2 mM stock.
To prepare plates, HCV replicon cells, with or without a Renilla luciferase reporter gene, were trypsinized and placed into each well of a 96-well plate with titrated test compounds added in columns 3 through 12; columns 1 and 2 contained a control compound (HCV protease inhibitor), and the bottom row contained cells without compound. The plates were then placed in a CO2 incubator at 37° C.
Assays. Subsequent to addition of the test compounds described above (FRET Assay Preparation), at various times the plate was removed and Alamar blue solution (Trek Diagnostics, #00-100) was added per well as a measure of cellular toxicity. After reading in a Cytoflour 4000 instrument (PE Biosystems), plates were rinsed with PBS and then used for FRET assay by the addition of 30 ul of the FRET peptide assay reagent described above (FRET Assay Preparation) per well. The plate was then placed into the Cytoflour 4000 instrument which had been set to 340 excite/490 emission, automatic mode for 20 cycles and the plate read in a kinetic mode. Typically, the signal to noise using an endpoint analysis after the reads was at least three-fold. Alternatively, after Alamar blue reading, plates were rinsed with PBS, 50 ul of DMEM (high glucose) without phenol red was added and plates were then used for luciferase assay using the Promega Dual-Glo Luciferase Assay System.
Compound analysis was determined by quantification of the relative HCV replicon inhibition and the relative cytotoxicity values. To calculate cytoxicity values, the average Alamar Blue fluorescence signals from the control wells were set as 100% non-toxic. The individual signals in each of the compound test wells were then divided by the average control signal and multiplied by 100% to determine […]. To calculate the HCV replicon inhibition values, an average background value was obtained from the two wells containing the highest amount of HCV protease inhibitor at the end of the assay period. These numbers were similar to those obtained from naïve Huh-7 cells.
The background numbers were then subtracted from the average signal obtained from the control wells and this number was used as 100% activity. The individual signals in each of the compound test wells were then divided by the averaged control values after background subtraction and multiplied by 100% to determine percent activity. EC50 values for a protease inhibitor titration were calculated as the concentration which caused a 50% reduction in FRET or luciferase activity. The two numbers generated for the compound plate, percent cytoxicity and percent activity were used to determine compounds of interest for further analysis.

[3] = HCV RdRp genotype 1b enzyme, read-out: IC50
[4] = HCV replicon cells, FRET or luciferase readout, read-out: EC50

T1 sequence (Q9WMX2 2420-2992): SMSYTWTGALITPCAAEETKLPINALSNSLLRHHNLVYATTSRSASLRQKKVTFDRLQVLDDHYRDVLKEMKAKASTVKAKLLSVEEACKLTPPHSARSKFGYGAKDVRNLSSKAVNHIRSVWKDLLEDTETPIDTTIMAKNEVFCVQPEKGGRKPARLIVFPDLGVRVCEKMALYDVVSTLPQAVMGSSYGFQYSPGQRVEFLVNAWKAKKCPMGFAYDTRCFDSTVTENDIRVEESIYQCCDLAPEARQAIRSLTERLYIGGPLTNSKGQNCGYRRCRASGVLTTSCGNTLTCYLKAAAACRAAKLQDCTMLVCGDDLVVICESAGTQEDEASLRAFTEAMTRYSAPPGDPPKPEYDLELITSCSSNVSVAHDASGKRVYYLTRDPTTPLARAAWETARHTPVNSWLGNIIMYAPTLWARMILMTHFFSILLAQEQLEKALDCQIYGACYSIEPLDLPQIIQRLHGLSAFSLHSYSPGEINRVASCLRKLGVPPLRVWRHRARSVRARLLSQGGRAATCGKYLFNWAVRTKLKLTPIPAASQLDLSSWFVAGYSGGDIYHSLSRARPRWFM

Compound | IC50 [1] [nM] | EC50 [2] [nM] | IC50 [1, 3] [nM] | EC50 [2, 4] [nM]
COc1ccc2c(c1)C=C(c1c(C(=O)N3C4CCC3CN(C)C4)cnn1C)Cn1c-2c(C2CCCCC2)c2ccc(C(=O)NS(=O)(=O)C(C)C)cc21 | 1 to 500 | 1 to 500 |  | 
COc1ccc2c(c1)C=C(c1c(C(=O)N3CCOCC3)cnn1C)Cn1c-2c(C2CCCCC2)c2ccc(C(=O)NS(=O)(=O)C3CCCC3)cc21 |  |  | 1 to 500 | 1 to 500
CCN1C[C@@H]2C[C@H]1CN2C(=O)c1c(C)nn(CC)c1C1=Cc2cc(OC)ccc2-c2c(C3CCCCC3)c3ccc(C(=O)NS(=O)(=O)C(C)C)cc3n2C1 |  |  | 1 to 500 | 1 to 500
COc1ccc2c(c1)C=C(c1c(C(=O)N3C4CCC3CN(C)C4)ccn1C(C)C)Cn1c-2c(C2CCCCC2)c2ccc(C(=O)NS(=O)(=O)C(C)C)cc21 | 1 to 500 | 1 to 500 |  | 
COc1ccc2c(c1)C=C(c1c(C(=O)O)ccn1C(C)C)Cn1c-2c(C2CCCCC2)c2ccc(C(=O)NS(=O)(=O)C(C)C)cc21 |  |  | 1 to 500 | > 500
COc1ccc2c(c1)C=C(c1ccsc1C(=O)N1CCOCC1)Cn1c-2c(C2CCCCC2)c2ccc(C(=O)NS(=O)(=O)N(C)C)cc21 |  |  | 1 to 500 | 1 to 500
COc1ccc2c(c1)C=C(c1c(C(=O)N3C[C@@H]4C[C@H]3CO4)c(C)nn1C(C)C)Cn1c-2c(C2CCCCC2)c2ccc(C(=O)NS(=O)(=O)C(C)C)cc21 |  |  | 1 to 500 | 1 to 500
COc1ccc2c(c1)C=C(c1c(C(=O)N3CC4CCC(C3)O4)c(C)nn1C)Cn1c-2c(C2CCCCC2)c2ccc(C(=O)NS(=O)(=O)C(C)C)cc21 |  |  | 1 to 500 | 1 to 500
COc1ccc2c(c1)C=C(c1c(C(=O)N3C[C@@H](C)N(C)[C@@H](C)C3)cnn1C(C)(C)C)Cn1c-2c(C2CCCCC2)c2ccc(C(=O)NS(=O)(=O)C(C)C)cc21 |  |  | 1 to 500 | 1 to 500
COc1ccc2c(c1)C=C(c1c(C(=O)N3[C@@H]4CC[C@H]3C[C@@](C)(O)C4)cnn1C)Cn1c-2c(C2CCCCC2)c2ccc(C(=O)NS(=O)(=O)C(C)C)cc21 | 1 to 500 | 1 to 500 |  | 
COC(=O)c1ncoc1C1=Cc2cc(OC)ccc2-c2c(C3CCCCC3)c3ccc(C(=O)OC(C)(C)C)cc3n2C1 |  |  | > 40 | > 40
COc1ccc2c(c1)C=C(c1c(C(=O)N3C4CC3CN(C)C4)cnn1C(C)C)Cn1c-2c(C2CCCCC2)c2ccc(C(=O)NS(=O)(=O)C(C)C)cc21 |  |  | 1 to 500 | 1 to 500
CCn1nc(C)c(C2=Cc3cc(OC)ccc3-c3c(C4CCCCC4)c4ccc(C(=O)NS(=O)(=O)C(C)C)cc4n3C2)c1C(=O)N1C[C@@H](C)O[C@@H](C)C1 |  |  | 1 to 500 | 1 to 500
COc1ccc2c(c1)C=C(c1ocnc1C(=O)N1CCOCC1)Cn1c-2c(C2CCCCC2)c2ccc(C(=O)NS(=O)(=O)C3CC3)cc21 |  |  | 1 to 500 | 1 to 500
CCn1nc(C)c(C(=O)OC)c1C1=Cc2cc(OC)ccc2-c2c(C3CCCCC3)c3ccc(C(=O)O)cc3n2C1 |  |  | > 500 | > 500
CCN(CC)C(=O)c1sccc1C1=Cc2cc(OC)ccc2-c2c(C3CCCCC3)c3ccc(C(=O)NS(=O)(=O)N(C)C)cc3n2C1 |  |  | 1 to 500 | 1 to 500
COc1ccc2c(c1)C=C(c1c(C(=O)N3C4CCC3CN(C)C4)cnn1CC(F)(F)F)Cn1c-2c(C2CCCCC2)c2ccc(C(=O)NS(=O)(=O)C(C)C)cc21 | 1 to 500 | 1 to 500 |  | 
COc1ccc2c(c1)C=C(c1c(C(=O)N(CCN(C(C)C)C(C)C)C(C)C)cnn1C)Cn1c-2c(C2CCCCC2)c2ccc(C(=O)NS(=O)(=O)C(C)C)cc21 |  |  | 1 to 500 | 1 to 500
CCN1C[C@@H]2C[C@H]1CN2C(=O)c1cnn(CC(F)(F)F)c1C1=Cc2cc(OC)ccc2-c2c(C3CCCCC3)c3ccc(C(=O)NS(=O)(=O)C(C)C)cc3n2C1 |  |  | 1 to 500 | 1 to 500
COc1ccc2c(c1)C=C(c1c(C(=O)N3C[C@H]4CC[C@@H](C3)N4C)cnn1C(C)C)Cn1c-2c(C2CCCCC2)c2ccc(C(=O)NS(=O)(=O)CC(C)C)cc21 | 1 to 500 | 1 to 500 |  | 
CCn1ncc(C(=O)N2CCOCC2)c1C1=Cc2cc(OC)ccc2-c2c(C3CCCCC3)c3ccc(C(=O)NS(=O)(=O)C(C)C)cc3n2C1 |  |  | 1 to 500 | 1 to 500
CCC(C)S(=O)(=O)NC(=O)c1ccc2c(C3CCCCC3)c3n(c2c1)CC(c1c(C(=O)N2CCOCC2)cnn1C)=Cc1cc(OC)ccc1-3 (stereo not shown) |  |  | 1 to 500 | 1 to 500
COc1ccc2c(c1)C=C(c1c(C(=O)N3CCOCC3)c(C(F)(F)F)nn1C)Cn1c-2c(C2CCCCC2)c2ccc(C(=O)NS(=O)(=O)C(C)C)cc21 |  |  | < 20 | 1 to 500
